Source: patent US5831026A, “Process for purifying factor VIII” (Pharmacia & Upjohn AB, priority 1994, dated 1998)
Read-outs that look alike come from different tables or passages of the source.

Test system: factor VIII
Details: ambient temperature, vs zero-time value
Method: Conditioned mediums (containing human serum albumin) from four harvests being different from the previous Examples were clarified and buffered with NH4 Ac. Each resulting solution, with a pH of 6.8, was loaded onto a column containing SP SEPHAROSE® FF. This cation-exchange chromatography step was performed at about 8° C. After washing, factor VIII was eluted with a salt buffer containing 0.8M NaCl and 0.1M NH4 Ac. The washing liquid as well as the elution liquid contained 3 mM EDTA. Tests without EDTA present were carried out for comparison. The procoagulant activity of factor VIII was determined by use of a chromogenic substrate method, COATEST® Factor VIII kit (Chromogenix AB of Sweden) after storage at ambient temperature for up to 24 hours. The relative standard deviation (RSD) of the method is 7%.

With `O=C(O)CN(CCN(CC(=O)O)CC(=O)O)CC(=O)O` [EDTA, ethylenediamine tetraacetic acid] the “Factor VIII activity (%) In preparation with 3 mM EDTA” value (harvest solution 1, S-eluate storage 0 h) was 100%, the “Factor VIII activity (%) In preparation with 3 mM EDTA” value (harvest solution 1, S-eluate storage 6 h) was 98% and the “Factor VIII activity (%) In preparation with 3 mM EDTA” value (harvest solution 1, S-eluate storage 24 h) was 100%. The “Factor VIII activity (%) In preparation with 3 mM EDTA” value (harvest solution 2, S-eluate storage 0 h) was 100%, the “Factor VIII activity (%) In preparation with 3 mM EDTA” value (harvest solution 2, S-eluate storage 6 h) was 101% and the “Factor VIII activity (%) In preparation with 3 mM EDTA” value (harvest solution 2, S-eluate storage 24 h) was 98%. For the same molecule, the “Factor VIII activity (%) In preparation with 3 mM EDTA” value (harvest solution 3, S-eluate storage 0 h) was 100%, the “Factor VIII activity (%) In preparation with 3 mM EDTA” value (harvest solution 3, S-eluate storage 6 h) was 109% and the “Factor VIII activity (%) In preparation with 3 mM EDTA” value (harvest solution 3, S-eluate storage 24 h) was 109%. For the same molecule, the “Factor VIII activity (%) In preparation with 3 mM EDTA” value (harvest solution 4, S-eluate storage 0 h) was 100%, the “Factor VIII activity (%) In preparation with 3 mM EDTA” value (harvest solution 4, S-eluate storage 6 h) was 103% and the “Factor VIII activity (%) In preparation with 3 mM EDTA” value (harvest solution 4, S-eluate storage 24 h) was 102%.
